How the values were obtained:
Histamine H3 receptor [1] = molecular target: Histamine H3 receptor (Rattus norvegicus, UniProt Q9QYN8); test: Displacement of N-[3H]methylhistamine from histamine H3 receptor in rat cortex membrane; format: cell membranes
Histamine H3 receptor [2] = molecular target: T1, Histamine H3 receptor (Homo sapiens, UniProt Q9Y5N1); test: Inverse agonist activity at human H3 receptor expressed in CHOK1 cells by GTPgammaS binding assay; format: functional, cell-based, CHO-K1
[3] = Bioavailability in rat at 10 mg/kg, po; format: ADME, organism-based; details: in vivo
[4] = Tmax in rat at 10 mg/kg, po; format: ADME, organism-based; design: dose 10 mg/kg, route oral; details: in vivo
Rattus norvegicus = species: Rattus norvegicus; test: Inhibition of R(-)-alpha-methylhistamine-induced drinking response in rat dipsogenia model after 0.5 hrs; format: functional, organism-based
Histamine H3 receptor [5] = molecular target: T1, Histamine H3 receptor; test: Antagonist activity at human histamine H3 receptor expressed in CHOK1 cells by [3H]R(-)-alpha-methylhistamine displacement assay; format: cell-based, CHO-K1
[6] = Half life in rat at 10 mg/kg, po; format: ADME, organism-based; design: dose 10 mg/kg, route oral; details: in vivo

Chain of Histamine H3 receptor (Rattus norvegicus, UniProt Q9QYN8) (Q9QYN8 whole entry): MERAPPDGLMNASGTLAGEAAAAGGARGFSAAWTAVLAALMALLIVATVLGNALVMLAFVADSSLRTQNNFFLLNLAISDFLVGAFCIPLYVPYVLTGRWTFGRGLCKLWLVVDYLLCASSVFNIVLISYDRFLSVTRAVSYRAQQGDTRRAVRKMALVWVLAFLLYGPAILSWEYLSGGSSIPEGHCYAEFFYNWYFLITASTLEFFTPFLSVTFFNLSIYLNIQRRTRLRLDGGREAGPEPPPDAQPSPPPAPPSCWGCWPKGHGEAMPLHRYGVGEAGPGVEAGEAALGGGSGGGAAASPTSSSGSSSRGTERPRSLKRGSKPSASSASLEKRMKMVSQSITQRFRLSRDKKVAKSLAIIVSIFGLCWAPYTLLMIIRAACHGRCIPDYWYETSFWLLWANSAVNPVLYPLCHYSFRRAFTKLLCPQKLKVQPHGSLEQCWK
T1 sequence (Q9Y5N1 whole entry): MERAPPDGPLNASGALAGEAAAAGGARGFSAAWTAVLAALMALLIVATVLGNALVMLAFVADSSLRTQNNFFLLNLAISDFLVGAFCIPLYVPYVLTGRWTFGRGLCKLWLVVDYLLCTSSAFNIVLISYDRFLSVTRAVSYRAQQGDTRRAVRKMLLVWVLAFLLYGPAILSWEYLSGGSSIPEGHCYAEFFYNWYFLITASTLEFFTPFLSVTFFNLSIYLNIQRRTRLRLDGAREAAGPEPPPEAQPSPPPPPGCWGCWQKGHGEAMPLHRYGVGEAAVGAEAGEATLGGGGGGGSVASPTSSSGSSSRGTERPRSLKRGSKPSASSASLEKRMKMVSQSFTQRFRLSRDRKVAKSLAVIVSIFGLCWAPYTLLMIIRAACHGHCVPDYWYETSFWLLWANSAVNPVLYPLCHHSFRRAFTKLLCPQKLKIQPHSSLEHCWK

SMILES | Ki (Histamine H3 receptor [1]) [nM] | further results
O=C(C1CCOC1)N1C[C@@H]2CC=C(c3ccc(CCN4CCCC4)cc3)[C@@H]2C1 (stereo not given in full) | 4 | –
C[C@@H]1CCCN1CCc1ccc(C2=CC[C@H]3CN(C(=O)c4ccccc4)C[C@@H]23)cc1 | 3 | –
CC(C)C(=O)N1C[C@@H]2CC=C(c3ccc(CCN4CCCC4)cc3)[C@@H]2C1 | 5 | –
C[C@@H]1CCCN1CCc1ccc(C2=CC[C@H]3CN(C(=O)C4CCOCC4)C[C@@H]23)cc1 | 0.7 | Ki (Histamine H3 receptor [2]): 4 nM; bioavailability [3]: 66%; Tmax [4]: 0.3 h; Activity (Rattus norvegicus): Dose-dependent effect; Ki (Histamine H3 receptor [5]): 2 nM; half-life [6]: 2.5 h
O=S(=O)(Cc1ccccc1)N1C[C@@H]2CC=C(c3ccc(CCN4CCCC4)cc3)[C@@H]2C1 | 12 | –
C1=C(c2ccc(CCN3CCCC3)cc2)[C@@H]2CN(CC3CC3)C[C@@H]2C1 | – | Ki (Histamine H3 receptor [2]): 1 nM; Tmax [4]: 6 h; Ki (Histamine H3 receptor [5]): 0.9 nM; half-life [6]: 6 h
O=C(N1CCOCC1)N1C[C@@H]2CC=C(c3ccc(CCN4CCCC4)cc3)[C@@H]2C1 | 12 | –
O=C(C1CCCC1)N1C[C@@H]2CC=C(c3ccc(CCN4CCCC4)cc3)[C@@H]2C1 | 3 | –
O=C(c1ccccc1)N1C[C@@H]2CC=C(c3ccc(CCN4CCCC4)cc3)[C@@H]2C1 | 21 | –
O=S(=O)(c1ccccc1)N1C[C@@H]2CC=C(c3ccc(CCN4CCCC4)cc3)[C@@H]2C1 | 17 | –
CN(C)C(=O)N1C[C@@H]2CC=C(c3ccc(CCN4CCCC4)cc3)[C@@H]2C1 | 13 | –
CC(C)S(=O)(=O)N1C[C@@H]2CC=C(c3ccc(CCN4CCCC4)cc3)[C@@H]2C1 | 12 | bioavailability [3]: 3%; Tmax [4]: 0.2 h; half-life [6]: 5 h
O=C(Cc1ccccc1)N1C[C@@H]2CC=C(c3ccc(CCN4CCCC4)cc3)[C@@H]2C1 | 7 | –
C[C@@H]1CCCN1CCc1ccc(C2=CC[C@H]3CN(C(=O)c4cccnc4)C[C@@H]23)cc1 | 1 | –
O=C(c1cccnc1)N1C[C@@H]2CC=C(c3ccc(CCN4CCCC4)cc3)[C@@H]2C1 | 6 | –
O=C(CO)N1C[C@@H]2CC=C(c3ccc(CCN4CCCC4)cc3)[C@@H]2C1 | 6 | bioavailability [3]: 39%; Tmax [4]: 0.6 h; half-life [6]: 1.8 h
CC(C)C(=O)N1C[C@@H]2CC=C(c3ccc(CCN4CCC[C@H]4C)cc3)[C@@H]2C1 | 0.4 | –
C[C@@H]1CCCN1CCc1ccc(C2=CC[C@H]3CN(C(=O)C4CCCC4)C[C@@H]23)cc1 | 0.4 | –
O=C(NC1CCCC1)N1C[C@@H]2CC=C(c3ccc(CCN4CCCC4)cc3)[C@@H]2C1 | 16 | –
CC(C)NC(=O)N1C[C@@H]2CC=C(c3ccc(CCN4CCCC4)cc3)[C@@H]2C1 | 20 | bioavailability [3]: 22%; Tmax [4]: 0.3 h; half-life [6]: 7.3 h
C[C@@H]1CCCN1CCc1ccc(C2=CC[C@H]3CN(C(=O)Cc4ccccc4)C[C@@H]23)cc1 | 0.3 | –
CS(=O)(=O)N1C[C@@H]2CC=C(c3ccc(CCN4CCCC4)cc3)[C@@H]2C1 | 27 | –

— ChEMBL document CHEMBL1158153, “Novel H3 receptor antagonists with improved pharmacokinetic profiles” (Bioorg Med Chem Lett, 2008)
